From the NIST ThermoML archive (doi:10.1021/je7004006)

Test: molar heat capacity at constant pressure
Details: 101.33 kPa, Crystal, Small (less than 1 g) adiabatic calorimetry

O=C([O-])c1cccnc1.O=C([O-])c1cccnc1.O=C([O-])c1cccnc1.[Cr+3] [chromium nicotinate]
Details | molar heat capacity at constant pressure [J/K/mol]
78.3 K | 123.81
79.58 K | 125.36
80.78 K | 127.92
83.27 K | 130.33
85.75 K | 132.64
87.67 K | 134.61
88.87 K | 136.08
90.15 K | 137.63
92 K | 139.67
93.27 K | 141.41
94.62 K | 142.98
95.9 K | 144.85
97.32 K | 146.89
98.81 K | 148.83
100.39 K | 151.39
102.33 K | 154.15
104.42 K | 157.04
106.52 K | 159.91
108.56 K | 162.72
110.57 K | 165.32
112.55 K | 168.16
114.51 K | 171.37
116.44 K | 174.23
118.51 K | 177.09
120.7 K | 180.42
122.86 K | 183.21
125 K | 186.13
127.12 K | 189.86
129.2 K | 192.42
131.27 K | 194.83
133.29 K | 197.19
135.34 K | 199.39
137.35 K | 202.21
139.34 K | 205.13
141.27 K | 208.55
143.29 K | 211.67
145.18 K | 214.31
147.24 K | 217.25
149.26 K | 220.52
151.28 K | 222.96
153.41 K | 226.31
155.54 K | 229.13
157.62 K | 231.64
159.7 K | 235.03
161.75 K | 238.11
163.85 K | 240.81
165.85 K | 243.11
167.87 K | 246.05
169.89 K | 248.77
171.91 K | 251.87
173.84 K | 254.46
175.86 K | 257.44
177.79 K | 260.13
179.73 K | 262.72
181.66 K | 265.17
183.6 K | 268.44
185.62 K | 271.07
187.71 K | 274.19
189.73 K | 277.14
191.82 K | 280.35
193.92 K | 283.85
196.02 K | 286.68
198.11 K | 289.66
200.29 K | 293.01
202.31 K | 295.75
204.32 K | 298.67
206.42 K | 301.71
208.43 K | 304.98
210.45 K | 308.04
212.47 K | 310.72
214.4 K | 313.38
216.42 K | 316.97
218.35 K | 320.03
220.29 K | 324.12
222.3 K | 325.43
224.24 K | 328.85
226.09 K | 332.72
228.83 K | 337.34
231.74 K | 341.35
234.72 K | 345.07
237.78 K | 349.99
241.01 K | 354.61
244.07 K | 360.78
247.13 K | 364.57
250.28 K | 369.63
253.26 K | 373.95
256.33 K | 378.71
259.39 K | 383.32
262.45 K | 388.08
265.52 K | 392.41
268.5 K | 397.46
271.49 K | 402.07
274.55 K | 406.39
277.77 K | 410.55
280.84 K | 415.32
283.98 K | 420.08
287.05 K | 425.14
290.11 K | 429.31
293.25 K | 432.73
296.24 K | 436.89
299.14 K | 441.06
302.2 K | 445.38
305.27 K | 449.99
308.25 K | 453.86
311.39 K | 458.92
314.62 K | 464.13
317.68 K | 468.44
320.91 K | 472.31
324.13 K | 476.78
327.12 K | 480.35
329.78 K | 484.81
332.44 K | 488.54
335.1 K | 492.26
337.84 K | 495.98
340.5 K | 499.71
343.24 K | 503.86
346.06 K | 507.44
348.97 K | 511.45
351.79 K | 514.88
354.53 K | 518.75
357.43 K | 523.81
360.34 K | 528.42
363 K | 532.73
365.9 K | 536.45
368.64 K | 539.88
371.37 K | 543.64
374.08 K | 547.89
376.98 K | 552.51
379.69 K | 556.21
382.38 K | 559.42
385.12 K | 562.83
387.85 K | 566.51
390.52 K | 569.91
